Results from patent US20230399312A1, “SUBSTITUTED PYRIMIDINES AND METHODS OF USE” (THERAVANCE BIOPHARMA R&D IP, LLC, priority 2020, published 2023).
pKi: −log10 of the molar value.

Experiments:
[1] = biological target: T1, recombinant human ALK5 (TGF-βR1) protein (Homo sapiens, UniProt P36897); experiment: Biochemical ALK5 (TGF-βR1) assay to measure pKi (LANCE Ultra ULight kinase assay); conditions: apparent pKi, converted from pIC50 by Cheng-Prusoff
T1 construct: purchased Life Technologies PR9075A
T1 sequence (P36897 34-503): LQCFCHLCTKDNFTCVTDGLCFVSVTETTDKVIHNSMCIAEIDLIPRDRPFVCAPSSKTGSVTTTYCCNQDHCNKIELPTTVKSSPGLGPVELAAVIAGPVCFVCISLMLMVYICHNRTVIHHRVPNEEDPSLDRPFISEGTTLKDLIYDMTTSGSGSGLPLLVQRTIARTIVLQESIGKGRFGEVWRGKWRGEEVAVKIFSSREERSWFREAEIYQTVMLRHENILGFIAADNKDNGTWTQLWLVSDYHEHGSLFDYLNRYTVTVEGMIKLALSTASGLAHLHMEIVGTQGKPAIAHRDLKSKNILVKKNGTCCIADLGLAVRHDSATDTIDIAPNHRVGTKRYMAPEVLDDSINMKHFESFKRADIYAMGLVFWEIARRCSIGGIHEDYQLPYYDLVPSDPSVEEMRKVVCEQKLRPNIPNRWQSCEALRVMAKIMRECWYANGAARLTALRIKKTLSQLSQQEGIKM
Procedure, shortened: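 Enzyme was preincubated with compound for 60 min at room temperature, then ATP (added from a 125 μM 5× stock with 2 mM DTT) started a 60 min reaction at 37 °C. EDTA plus Eu-anti-phospho-Topo2α (Thr1342) antibody stopped it; TR-FRET pIC50 values were converted to pKi by Cheng-Prusoff.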

[2] = system: TGF-β-stimulated SMAD3 phosphorylation in BEAS-2B cells; experiment: Cellular ALK5 potency assay, inhibition of TGF-β stimulated pSMAD3 formation in BEAS-2B cells; format: cell-based; conditions: Homo sapiens, pSMAD3, TGF-β 10 ng/mL, read-out: BEAS2B pIC50 (converted)
Procedure, shortened: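 Cells were seeded overnight, rinsed into HEPES/BSA-supplemented HBSS, and dosed with serially diluted compound for 1 h at 37 °C, 5% CO2. TGF-β stimulation (10 ng/mL final) followed for 30 min, then lysis and AlphaLISA pSMAD3 measurement; potency reported as pIC50.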

Structure (SMILES) | pKi [1] | IC50 [2] [nM]
Cc1cccc(-c2nccc(Nc3ccnc(Nc4ccc(CN5CCCC(C(=O)OCC6CNC6)C5)cc4)n3)n2)n1 (stereo not drawn) [Compound 318, azetidin-3-ylmethyl 1-[[4-[[4-[[2-(6-methyl-2-pyridyl)pyrimidin-4-yl]amino]pyrimidin-2-yl]amino]phenyl]methyl] piperidine-3-carboxylate] | 9.50 to 10.40 | 25.1 to 158
Cc1cccc(-c2nccc(Nc3ccnc(Nc4ccc(CN5CCCC(C(=O)NC6CCNCC6)C5)cc4)n3)n2)n1 (stereo not drawn) [Compound 320, 1-[[4-[[4-[[2-(6-methyl-2-pyridyl)pyrimidin-4-yl]amino]pyrimidin-2-yl]amino]phenyl]methyl]-N-(4-piperidyl)piperidine-3-carboxamide] | 9.50 to 10.40 | 25.1 to 158
Cc1cccc(-c2nccc(Nc3ccnc(Nc4ccc(NCCO)cc4)n3)n2)n1 [Compound 321, 2-[4-[[4-[[2-(6-methyl-2-pyridyl)pyrimidin-4-yl]amino]pyrimidin-2-yl]amino]anilino]ethanol] | 8.50 to 9.40 | 25.1 to 158
Cc1cccc(-c2nccc(Nc3ccnc(Nc4cccc(N5CCNCC5)c4)n3)n2)n1 [Compound 322, N4-[2-(6-methyl-2-pyridyl)pyrimidin-4-yl]-N2-(3-piperazin-1-ylphenyl)pyrimidine-2,4-diamine] | 9.50 to 10.40 | 25.1 to 158
Cc1cccc(-c2nccc(Nc3ccnc(Nc4nc(C(=O)O[C@H]5CCN(C)C5)cs4)n3)n2)n1 [Compound 323, [(3S)-1-methylpyrrolidin-3-yl] 2-[[4-[[2-(6-methyl-2-pyridyl)pyrimidin-4-yl]amino]pyrimidin-2-yl]amino]thiazole-4-carboxylate] | 8.50 to 9.40 | 25.1 to 158
Cc1cccc(-c2nccc(Nc3ccnc(Nc4ccc(N5CCC(N)CC5)cc4)n3)n2)n1 [Compound 324, N2-[4-(4-amino-1-piperidyl)phenyl]-N4-[2-(6-methyl-2-pyridyl)pyrimidin-4-yl]pyrimidine-2,4-diamine] | 9.50 to 10.40 | 25.1 to 158
Cc1cccc(-c2nccc(Nc3ccnc(Nc4ncc(C(=O)OC5CNC5)s4)n3)n2)n1 [Compound 325, azetidin-3-yl 2-[[4-[[2-(6-methyl-2-pyridyl)pyrimidin-4-yl]amino]pyrimidin-2-yl]amino]thiazole-5-carboxylate] | 7.50 to 8.40 | 25.1 to 158
CN1CCN(C2CCN(c3ccc(Nc4nccc(Nc5ccnc(-c6cc(Cl)c(F)cc6F)n5)n4)cc3)CC2)CC1 [Compound 326, N4-[2-(5-chloro-2,4-difluoro-phenyl)pyrimidin-4-yl]-N2-[4-[4-(4-methylpiperazin-1-yl)-1-piperidyl]phenyl]pyrimidine-2,4-diamine] | 9.50 to 10.40 | 200 to 1260
Cc1cccc(-c2nccc(Nc3ccnc(Nc4csc(C(=O)NC5CNC5)c4)n3)n2)n1 [Compound 327, N-(azetidin-3-yl)-4-[[4-[[2-(6-methyl-2-pyridyl)pyrimidin-4-yl]amino]pyrimidin-2-yl]amino]thiophene-2-carboxamide] | ≥ 10.50 | 25.1 to 158
Cc1cccc(-c2nccc(Nc3ccnc(Nc4ccc(-c5cn(C)nn5)cc4)n3)n2)n1 [Compound 328, N4-[2-(6-methyl-2-pyridyl)pyrimidin-4-yl]-N2-[4-(1-methyltriazol-4-yl)phenyl]pyrimidine-2,4-diamine] | 9.50 to 10.40 | ≤ 20
Cc1cccc(-c2nccc(Nc3ccnc(Nc4nc(CN5CCN[C@@H](CO)C5)cs4)n3)n2)n1 [Compound 329, [(2R)-4-[[2-[[4-[[2-(6-methyl-2-pyridyl)pyrimidin-4-yl]amino]pyrimidin-2-yl]amino]thiazol-4-yl]methyl]piperazin-2-yl]methanol] | 8.50 to 9.40 | 25.1 to 158
Cc1cccc(-c2nccc(Nc3ccnc(Nc4ccc(NC(=O)N5CCN(C)CC5)cc4)n3)n2)n1 [Compound 330, 4-methyl-N-[4-[[4-[[2-(6-methyl-2-pyridyl)pyrimidin-4-yl]amino]pyrimidin-2-yl]amino]phenyl]piperazine-1-carboxamide] | 9.50 to 10.40 | 25.1 to 158
Cc1cccc(-c2nccc(Nc3ccnc(Nc4ccc(C5=CCNC5)cc4)n3)n2)n1 [Compound 331, N2-[4-(2,5-dihydro-1H-pyrrol-3-yl)phenyl]-N4-[2-(6-methyl-2-pyridyl)pyrimidin-4-yl]pyrimidine-2,4-diamine] | ≥ 10.50 | ≤ 20
Cc1cccc(-c2nccc(Nc3ccnc(Nc4cccc(CN5CC6CCC(C5)N6)c4)n3)n2)n1 [Compound 332, N2-[3-(3,8-diazabicyclo[3.2.1]octan-3-ylmethyl)phenyl]-N4-[2-(6-methyl-2-pyridyl)pyrimidin-4-yl]pyrimidine-2,4-diamine] | 9.50 to 10.40 | 25.1 to 158
Cc1cccc(-c2nccc(Nc3ccnc(Nc4ccc(-c5cn(Cc6ccccc6)nn5)cc4)n3)n2)n1 [Compound 333, N2-[4-(1-benzyltriazol-4-yl)phenyl]-N4-[2-(6-methyl-2-pyridyl)pyrimidin-4-yl]pyrimidine-2,4-diamine] | 7.50 to 8.40 | 25.1 to 158
CNC(=O)[C@H]1CN(c2ccc(Nc3nccc(Nc4ccnc(-c5cccc(C)n5)n4)n3)cc2)CCN1 [Compound 334, (2R)-N-methyl-4-[4-[[4-[[2-(6-methyl-2-pyridyl)pyrimidin-4-yl]amino]pyrimidin-2-yl]amino]phenyl]piperazine-2-carboxamide] | 9.50 to 10.40 | 25.1 to 158
COc1cc(Nc2nccc(Nc3ccnc(-c4cccc(C)n4)n3)n2)ccc1CN1C[C@@H](C)N[C@@H](C)C1 [Compound 335, N2-[3-methoxy-4-[[rac-(3S,5R)-3,5-dimethylpiperazin-1-yl]methyl]phenyl]-N4-[2-(6-methyl-2-pyridyl)pyrimidin-4-yl]pyrimidine-2,4-diamine] | 9.50 to 10.40 | 25.1 to 158
Cc1cccc(-c2nccc(Nc3ccnc(Nc4csc(C(=O)N[C@@H]5CCNC5)c4)n3)n2)n1 [Compound 336, 4-[[4-[[2-(6-methyl-2-pyridyl)pyrimidin-4-yl]amino]pyrimidin-2-yl]amino]-N-[(3R)-pyrrolidin-3-yl]thiophene-2-carboxamide] | ≥ 10.50 | 25.1 to 158
Cc1cccc(-c2nccc(Nc3ccnc(Nc4ccc(N5CCC(C(=O)O[C@@H]6CCNC6)CC5)cc4)n3)n2)n1 [Compound 337, [(3R)-pyrrolidin-3-yl] 1-[4-[[4-[[2-(6-methyl-2-pyridyl)pyrimidin-4-yl]amino]pyrimidin-2-yl]amino]phenyl]piperidine-4-carboxylate] | 9.50 to 10.40 | 25.1 to 158
Cc1cccc(-c2nccc(Nc3ccnc(Nc4ncc(C(=O)OCC5CNC5)s4)n3)n2)n1 [Compound 338, azetidin-3-ylmethyl 2-((4-((2-(6-methylpyridin-2-yl)pyrimidin-4-yl)amino)pyrimidin-2-yl)amino)thiazole-5-carboxylate] | 7.50 to 8.40 | 200 to 1260
Cc1cccc(-c2nccc(Nc3ccnc(Nc4nc(CN5CCC[C@@H](C(=O)O)C5)cs4)n3)n2)n1 [Compound 339, (3R)-1-[[2-[[4-[[2-(6-methyl-2-pyridyl)pyrimidin-4-yl]amino]pyrimidin-2-yl]amino]thiazol-4-yl]methyl]piperidine-3-carboxylic acid] | 8.50 to 9.40 | 200 to 1260
